Laboratory results: a melting point compilation (Tetko et al.; mined from patent text by program, amines drawn as free bases though some values may be those of a salt)

**Q.** Which melting point does the source give for `Nc1cc(Br)c(OC(F)(F)C(F)Cl)cc1[N+](=O)[O-]` (stereo unspecified) here?
**A.** 90 °C

**Q.** Which melting point does the source give for `N#Cc1c(-c2ccccc2)cc(N2CCOCC2)nc1Cl` here?
**A.** 198 to 200 °C

**Q.** For `O=C(C=Cc1ccc(Cl)cc1)C1CC1`, which melting point is on record?
**A.** 61 °C

**Q.** With `CC1CC(C)(C)c2ccc(O)cc2O1` (stereo unspecified) as the compound, how does the melting point read?
**A.** 97 to 98 °C

**Q.** With `COC(=O)C=NOCc1c(F)cccc1COc1ccccc1C` as the compound, how does the melting point read?
**A.** 108 °C

**Q.** With `CCC1(CC)CN(C(C)(C)C)C(=O)C(CC)(CC)N1OC(=O)c1ccccc1` as the compound, how does the melting point read?
**A.** 91 to 93 °C

**Q.** For `N#Cc1cc(C#N)cc(Oc2cccc(Oc3cc(C#N)cc(C#N)c3)c2)c1`, which melting point is on record?
**A.** 212 to 213 °C

**Q.** For `CCCc1cn2ccccc2c1C(=O)c1ccc(OS(=O)(=O)c2ccc(C)cc2)cc1`, which melting point is on record?
**A.** 95 to 97 °C

**Q.** Which melting point does the source give for `O=C(O)Cc1coc2cc(OCc3cc(-c4ccc(Cl)cc4)on3)ccc12` here?
**A.** 193 to 194 °C

**Q.** With `N#Cc1ccc(-c2ccc(F)cc2)nc1` as the compound, how does the melting point read?
**A.** 149 °C

**Q.** Which melting point does the source give for `C[Si](C)(C)c1ccc2c(c1)cc(C(=O)Nc1ccc(N3CC(O)C3)nc1)n2Cc1cccc(F)c1` here?
**A.** 207 to 208 °C

**Q.** With `Cc1nc2ccc(NCCCN3CCC(OC(c4ccccc4)c4ccccc4)CC3)nn2c1C(=O)O` as the compound, how does the melting point read?
**A.** 101 to 103 °C

**Q.** For `CCCCCCC(=O)CCCC(=O)O`, which melting point is on record?
**A.** 58 to 59 °C

**Q.** With `CCCC(=O)Cc1ccc(C(=O)Nc2ccc3cc(CN4CCCCCC4)cnc3c2C)cc1` as the compound, how does the melting point read?
**A.** 136 to 137 °C

**Q.** With `COc1ccc(Cl)cc1NC(=O)[C@H]1[C@H](c2ccc(S(N)(=O)=O)cc2)C12CCCC2` (relative stereo) as the compound, how does the melting point read?
**A.** 210 to 212 °C

**Q.** For `COc1ccc2[nH]c(C)cc2c1OCc1ccccc1`, which melting point is on record?
**A.** 74 to 75 °C

**Q.** With `CCOC(=O)c1[nH]c2ccccc2c1CN(Cc1cc(C(F)(F)F)cc(C(F)(F)F)c1)c1nnn(C)n1` as the compound, how does the melting point read?
**A.** 83 °C

**Q.** With `COc1nc(Cc2nn(C)c(C)c2NS(=O)(=O)C(F)(F)F)nc(OC)n1` as the compound, how does the melting point read?
**A.** 145 °C

**Q.** With `CCCc1nc2c(N)nc3ccccc3c2n1CCCC(=O)N(C)OC` as the compound, how does the melting point read?
**A.** 163 to 165 °C

**Q.** With `Cc1cc2c(cc1C1=NNC(=O)CC1)N(C)C(=O)C(C)O2` (stereo unspecified) as the compound, how does the melting point read?
**A.** 210 to 212 °C

**Q.** With `CCOC(=O)c1n[nH]cc1[N+](=O)[O-]` as the compound, how does the melting point read?
**A.** 128 to 130 °C

**Q.** For `CC(C)(C)C(=O)c1ccc(C(N)=O)cc1`, which melting point is on record?
**A.** 138 to 140 °C

**Q.** For `NC(=O)c1coc2ccccc2c1=O`, which melting point is on record?
**A.** 220 to 225 °C

**Q.** With `O=C(c1ccccc1)c1ccc(-c2ccc(CBr)cc2)cc1` as the compound, how does the melting point read?
**A.** 110 to 112 °C

**Q.** Which melting point does the source give for `O=C1CCCc2nc3cc(F)ccc3c(NCc3ccccc3C(F)(F)F)c21` here?
**A.** 146 to 151 °C

**Q.** Which melting point does the source give for `COCCOc1ccc(CCNC(=O)OCc2ccccc2)c(Oc2ncc(C(F)(F)F)cc2Cl)c1` here?
**A.** 102 to 103 °C

**Q.** Which melting point does the source give for `O=Cc1ccccc1-c1nnn[nH]1` here?
**A.** 130 °C

**Q.** With `CCn1cc(C(=O)O)c2ccc(Cl)cc21` as the compound, how does the melting point read?
**A.** 225 to 227 °C

**Q.** For `O=C(O)COc1ccc2c(c1)-c1nc(SCC(c3ccccc3)c3ccccc3)sc1CC2`, which melting point is on record?
**A.** 165 to 167 °C

**Q.** Which melting point does the source give for `N#CC(c1ccccc1)(c1ccccc1)[C@H]1CCCN(CCc2ccc3c(c2)CCO3)C1` here?
**A.** 137 to 140 °C

**Q.** With `COc1ccc(Cl)cc1C1=NC(C)(C)CO1` as the compound, how does the melting point read?
**A.** 50 to 51 °C

**Q.** For `CCc1c(-c2ccc(N(C)C)nn2)ssc1=S`, which melting point is on record?
**A.** 160 °C

**Q.** With `C=CCN(CC)C(=O)n1cnc(S(=O)CC)n1` (stereo unspecified) as the compound, how does the melting point read?
**A.** 59 to 61 °C

**Q.** With `C#CCc1cc(C(O)=S)cc(N)c1Oc1ccccc1` as the compound, how does the melting point read?
**A.** 167 to 168 °C

**Q.** With `OC1CCSC(=S)N1c1ccccn1` (stereo unspecified) as the compound, how does the melting point read?
**A.** 120 °C

**Q.** With `C(=Cc1ccccc1)CN1CCN(C(c2ccccc2)c2ccccc2)CC1` as the compound, how does the melting point read?
**A.** 110 °C

**Q.** Which melting point does the source give for `COc1cc(C(=O)c2ccnc3ccccc23)ccc1O` here?
**A.** 190 to 192 °C

**Q.** For `Nc1ccc(OCC(O)CN2CCN(c3ccccc3C(=O)O)CC2)cc1` (stereo unspecified), which melting point is on record?
**A.** 260 to 263 °C

**Q.** With `Nc1ncnc2c1ncn2[C@H]1C[C@@H](CO)C1` as the compound, how does the melting point read?
**A.** 85 to 88 °C

**Q.** Which melting point does the source give for `CS(=O)(=O)c1cccnc1CC1C(=O)C2(COc3cc4c(cc32)OCCO4)c2ccccc21` (stereo unspecified) here?
**A.** > 250 °C

**Q.** With `CCCOc1ccc(S(=O)(=O)NC[C@@H](C(=O)NO)N2CCN(S(C)(=O)=O)CC2)cc1` as the compound, how does the melting point read?
**A.** 137 °C
